Where two headings read alike, the source gives them in different places.
What was measured:
[1] = biological target: T1, D2-like autoreceptors (rat brain striatal minces, [3H]-DA synthesis) (Rattus norvegicus, UniProt P61169); assay: cell-based
D2 receptors = settings: ref Clark et al., 1985; Burris et al., 2002; Tadori et al., 2005; cited from earlier work
[2] = biological target: T1, D2-like autoreceptors (rat brain striatal minces, [3H]-DA synthesis)

T1 sequence (P61169 1-415 isoform P61169-2): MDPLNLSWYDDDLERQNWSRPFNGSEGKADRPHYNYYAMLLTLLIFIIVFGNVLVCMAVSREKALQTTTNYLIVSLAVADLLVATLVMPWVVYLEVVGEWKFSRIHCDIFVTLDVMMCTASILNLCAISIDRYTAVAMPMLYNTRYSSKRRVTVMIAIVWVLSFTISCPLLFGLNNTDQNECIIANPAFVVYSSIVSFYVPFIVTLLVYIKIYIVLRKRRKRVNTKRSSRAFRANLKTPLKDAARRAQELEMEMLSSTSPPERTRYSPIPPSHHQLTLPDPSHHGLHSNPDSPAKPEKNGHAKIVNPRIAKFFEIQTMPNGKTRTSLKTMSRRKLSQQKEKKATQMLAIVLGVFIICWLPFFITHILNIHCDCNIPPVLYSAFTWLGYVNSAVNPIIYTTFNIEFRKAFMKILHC

blockade of QUIN decrease of DA synthesis by antagonist ([2]; 2mM K+, data not shown)	reversal of decrease in DA synthesis elicited by 1nM S-(-)-PPP ([2]; sulpiride 100nM)	blockade of effect of ARI 1 µM on DA synthesis ([2]; sulpiride 1 µM, 2mM K+)	blockade of inhibitory effect of ARI 10nM on DA synthesis ([2]; sulpiride 1 µM, 2mM K+)	SMILES	Emax ([1]; read-out: Emax, inhibition of [3H]-dopamine synthesis, basal 2mM K+) [%]	Emax ([1]; read-out: Emax, inhibition of [3H]-dopamine synthesis, stimulated 15mM K+) [%]	Emax ([1]; read-out: maximal effect on DA synthesis, 2mM K+) [%]	Emax ([1]; read-out: maximal effect on DA synthesis, 15mM K+) [%]	reported affinity for D2 receptors (D2 receptors)
–	–	–	–	CCCN1CCC[C@@H](c2cccc(O)c2)C1 [Preclamol (S-(-)-PPP), (-)-3-(3-hydroxyphenyl)-N-n-propylpiperidine]	34	31	-34	-31	high-nanomolar/low-micromolar range
totally blocked	completely reversed	partially blocked	fully eliminated	CCN1CCC[C@H]1CNC(=O)c1cc(S(N)(=O)=O)ccc1OC [sulpiride, (S)-(-)-sulpiride]	–	–	–	–	–

— paper PMC4360222 (International Journal of Neuropsychopharmacology, 2015)
